Patent US11591596B2, “Compounds and compositions including phosphorothioated oligodeoxynucleotide, and methods of use thereof” (City of Hope, priority 2015, dated 2023)

Test system: miR-126
Assay: In vitro and in vivo uptake and miR-126 silencing (K562, HUVEC, CD34+CD38- cells, murine CML BM, LTHSC, EC, mice)
Parameters: species or system human and mouse
Settings: 500 nM in vitro; 5 mg/kg iv in vivo
Procedure: FIGS. 23A-23K. […] Uptake test measured by flow cytometric analysis at 4 hours (FIG. 23A) and 24 hours (FIG. 23B) after addition of CpG-miR-126 inhibitor-Cy3 (CpG), Ab-NPs (Ab-NP) or TF-NPs (TF-NP) containing miR-126 inhibitor-Cy3, or naked miR-126 inhibitor-Cy3 (labeled as Control in FIGS. 23A and B) in K562 cells. The experiment was replicated twice. miR-126 expression in K562 was measured by Q-RT-PCR at 24 hours (n=3) (FIG. 23C). Uptake in HUVEC (FIG. 23D), human normal (FIG. 23E) and CML (FIG. 23F) CD34^+CD38^− cells at 4 hours after addition of CpG-miR-126 inhibitor-Cy3 (500 nM) was measured by flow cytometry. miR-126 expression in HUVEC (FIG. 23G), normal (FIG. 23H) and CML (FIG. 23I) CD34^+CD38^− cells treated with CpG-miR-126 inhibitor (500 nM) for 24 hours is shown (n=4). […]
FIGS. 25A-25O. […] Murine CML BM, LTHSC and EC cells were treated with CpG-miR-126 inhibitor-Cy3 (500 nM) for 4 hours and then Cy3^+ cells were detected by flow cytometry (FIG. 25A). The cells were also collected at 24 hours and miR-126 expression was determined by Q-RT-PCR (FIG. 25B). Cell cycling was measured by EDU staining at 72 hours after addition of CpG-miR-126 inhibitor in CML BM LTHSC. […] CML mice were treated with CpG-miR-126 inhibitor-Cy3 with one dose (5 mg/kg, iv injection) and Cy3 uptake in BM, LTHSC and EC was measured at 16 hours after treatment by flow cytometry (FIG. 25D). […]

5′ G*G*T GCA TCG ATG CAGG*G*G* G*G (SEQ ID NO: 1) xxxxx mCmGmC mAmUmU mAmUmU mAmCmU mCmAmC mGmGmU mAmCmG mA (SEQ ID NO: 17) 3′ [CpG-anti-miR126]
uptake and gene silencing effects: Effective in vitro and in vivo uptake and gene silencing effects
